From publication PMC6073332 (2018)

Assays:
[1] = tested on: duplex III (= I + II) (DNA, duplex) CTCTCTTGTCTTCTC/GAGAAGACAAGAGAG; assay: CD; conditions: Na+ 100 mM (NaClO4) in incubation stock, 50 mM TEAA pH 7, 310 K, 24 h, diluted to 5 μM duplex, covalent
[2] = tested on: single strand II (complement of I) (DNA, single strand) GAGAAGACAAGAGAG; assay: HPLC-ESI-MS; conditions: 50 mM TEAA pH 7, 310 K, 24 h; Ru/II 1.0 or 3.0; covalent
[3] = tested on: single strand I (-T7G8T9-) (DNA, single strand) CTCTCTTGTCTTCTC; assay: HPLC-UV peak areas, two-step stoichiometric fit; conditions: none listed (50 mM triethylammonium acetate buffer only); 50 mM TEAA pH 7, 310 K, 24 h; covalent; site 1 of 2 (G8)
[4] = tested on: duplex III (= I + II) (DNA, duplex) CTCTCTTGTCTTCTC/GAGAAGACAAGAGAG; assay: HPLC-ESI-MS (denaturing); conditions: Na+ 100 mM (NaClO4); 50 mM TEAA pH 7, 310 K, 48 h; Ru/III 1.0 or 6.0; covalent
[5] = tested on: single strand IV (-T7G8A9-) (DNA, single strand) CTCTCTTGACTTCTC; assay: HPLC-UV peak areas, two-step stoichiometric fit; conditions: none listed (50 mM triethylammonium acetate buffer only); 50 mM TEAA pH 7, 310 K, 24 h; covalent; site 1 of 2 (G8)
[6] = tested on: single strand V (-C7G8A9-) (DNA, single strand) CTCTCTCGACTTCTC; assay: HPLC-UV peak areas, two-step stoichiometric fit; conditions: none listed (50 mM triethylammonium acetate buffer only); 50 mM TEAA pH 7, 310 K, 24 h; covalent; site 1 of 2 (G8)
[7] = tested on: single strand VI (-A7G8C9-) (DNA, single strand) CTCTCTAGCCTTCTC; assay: HPLC-UV peak areas, two-step stoichiometric fit; conditions: none listed (50 mM triethylammonium acetate buffer only); 50 mM TEAA pH 7, 310 K, 24 h; covalent; site 1 of 2 (G8)
[8] = tested on: single strand VII (-C7G8C9-) (DNA, single strand) CTCTCTCGCCTTCTC; assay: HPLC-UV peak areas, two-step stoichiometric fit; conditions: none listed (50 mM triethylammonium acetate buffer only); 50 mM TEAA pH 7, 310 K, 24 h; covalent; site 1 of 2 (G8)
[9] = tested on: single strand VIII (-A7G8T9-) (DNA, single strand) CTCTCTAGTCTTCTC; assay: HPLC-UV peak areas, two-step stoichiometric fit; conditions: none listed (50 mM triethylammonium acetate buffer only); 50 mM TEAA pH 7, 310 K, 24 h; covalent; site 1 of 2 (G8)
[10] = tested on: single strand IX (-A7G8A9-) (DNA, single strand) CTCTCTAGACTTCTC; assay: HPLC-UV peak areas, two-step stoichiometric fit; conditions: none listed (50 mM triethylammonium acetate buffer only); 50 mM TEAA pH 7, 310 K, 24 h; covalent; site 1 of 2 (G8)

Question: How did the binding ([1]; Ru/III up to 6.0) turn out when Cc1ccc(C(C)C)cc1.NCCN.[Cl-].[Ru+2] was run?
Answer: The binding was “yes”.

Question: What about the binding [2] of the same compound?
Answer: Its binding is “yes”.

Question: What about the K1 [3] of the same compound?
Answer: Its K1 is 3.94 ± 0.24 × 10^4 M^−1.

Question: How did the binding ([1]; Pt/III 6.0) turn out when N.N.[Cl-].[Cl-].[Pt+2] was run?
Answer: The binding was “yes”.

Question: For NCCN.[Cl-].[Ru+2].c1ccc(-c2ccccc2)cc1, which binding [2] is on record?
Answer: The binding was “yes”.

Question: And the binding [4]?
Answer: Its binding is “yes”.

Question: What about the K1 [3] of the same compound?
Answer: The K1 was 2.92 ± 0.46 × 10^4 M^−1.

Question: And the K1 [5]?
Answer: Its K1 is 3.99 ± 0.31 × 10^4 M^−1.

Question: What about the K1 [6] of the same compound?
Answer: The K1 was 2.81 ± 0.55 × 10^4 M^−1.

Question: And the K1 [7]?
Answer: The K1 was 3.33 ± 0.37 × 10^4 M^−1.

Question: What about the K1 [8] of the same compound?
Answer: The K1 was 4.75 ± 0.53 × 10^4 M^−1.

Question: What about the K1 [9] of the same compound?
Answer: The K1 was 5.74 ± 0.44 × 10^4 M^−1.

Question: And the K1 [10]?
Answer: The K1 was 3.61 ± 0.39 × 10^4 M^−1.

Question: Which binding [2] does the source give for NCCN.[Cl-].[Ru+2].c1ccc2c(c1)CCC2 here?
Answer: Its binding is “yes”.

Question: What about the K1 [3] of the same compound?
Answer: Its K1 is 2.52 ± 0.13 × 10^4 M^−1.

Question: With NCCN.[Cl-].[Ru+2].c1ccccc1 as the compound, how does the binding [2] read?
Answer: Its binding is “yes”.

Question: And the binding [4]?
Answer: Its binding is “yes”.

Question: And the K1 [3]?
Answer: Its K1 is 0.79 ± 0.04 × 10^4 M^−1.
